Assay results: patent US8961986B2, “Peptide composition” (Apitope Technology (Bristol) Limited, priority 2000, dated 2015)
Entries after “also recorded” stand apart in the source; their conditions may differ.

Experiments:
[1] = system: experimental autoimmune encephalomyelitis (EAE); conditions: cited from earlier work
[2] = system: 81-111-responsive T-cell line and sub-lines; assay: Reactivity of T cell lines and clones from peptide-primed mice to MBP 81-111 region peptides; type: cell-based; conditions: TCL specific for 89-94, 92-98, 95-101
Method: In order to investigate T cell reactivity to the 81-111 region of MBP, lymph node cells from mice primed with 81-111 are stimulated with 81-111 in vitro and these cells are tested with a panel of overlapping 10-mer peptides with two residue shifts covering the 81-111 region (namely: 81-90, 83-92, 85-94, 87-96, 89-98, 91-100, 93-102, 95-104, 97-106, 99-108 and 101-111). The response pattern to peptides covering the 89-101 show stimulatory capacity for 5 adjacent peptides (N terminal 87-96 through to 95-104) reflecting the presence of at least two (and perhaps three) distinct epitopes.
In order to investigate this region further, three sub-lines are generated from the original 81-111-responsive T-cell line and these are retested with a panel of overlapping 10-mer peptides with one residue shift covering the 84-106 region. The results reveal the existence of three distinct but overlapping T cell epitopes within the 89-101 sequence: 89-94, 92-98 and 95-101 (see FIG. 14).

[3] = system: draining lymph node cells; assay: Tolerance experiments with 89-101 and 87-96: lymph node cell recall proliferation; type: in vivo, Mice
Method: In order to test this possibility tolerance experiments are performed with the 89-101 and 87-96 peptides (FIGS. 15a and b).
Mice received 200 μg of peptide in PBS or PBS alone intraperitoneally on days −8, −6 and −4 prior to 100 μg of peptide in complete Freunds adjuvant on day 0. After 10 days, draining lymph node cells (6×10^5 per well) were cultured in X-Vivo 15 medium supplemented with 5×10^−5M 2-mercaptoethanol and […] L-glutamine with or without antigen for 72 hours. Cultures were pulsed for the final 16 hours with 0.5 μCi ^3H.thymidine and incorporation measured using a liquid scintillation counter. Results are expressed as means counts per minute for triplicate cultures.

I-A^S = biological target: T1, I-A^S (Mus musculus, UniProt P06345+P14437); conditions: cited from earlier work
T1 sequence (P14437 1-233): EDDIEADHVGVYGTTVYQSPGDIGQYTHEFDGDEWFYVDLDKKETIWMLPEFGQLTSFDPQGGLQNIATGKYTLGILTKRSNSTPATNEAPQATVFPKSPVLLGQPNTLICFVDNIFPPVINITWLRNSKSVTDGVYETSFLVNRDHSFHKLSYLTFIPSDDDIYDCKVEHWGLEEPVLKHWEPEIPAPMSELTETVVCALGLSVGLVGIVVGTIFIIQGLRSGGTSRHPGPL
T1 sequence (P06345 28-263): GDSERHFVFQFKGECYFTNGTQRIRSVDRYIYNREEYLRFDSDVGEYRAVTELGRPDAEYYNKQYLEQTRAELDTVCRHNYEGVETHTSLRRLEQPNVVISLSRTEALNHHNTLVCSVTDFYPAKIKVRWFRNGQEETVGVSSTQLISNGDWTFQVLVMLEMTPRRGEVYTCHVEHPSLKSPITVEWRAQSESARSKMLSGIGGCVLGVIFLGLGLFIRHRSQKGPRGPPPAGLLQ

HLA-DR2b = biological target: T2, HLA-DR2b (Homo sapiens, UniProt P01903+P01911); assay: Antigen presentation assay, HLA-DR2b transfected L-cells; type: cell-based
T2 construct: expressed in transfected cells; host or cells: L-cells
T2 sequence (P01903 26-254): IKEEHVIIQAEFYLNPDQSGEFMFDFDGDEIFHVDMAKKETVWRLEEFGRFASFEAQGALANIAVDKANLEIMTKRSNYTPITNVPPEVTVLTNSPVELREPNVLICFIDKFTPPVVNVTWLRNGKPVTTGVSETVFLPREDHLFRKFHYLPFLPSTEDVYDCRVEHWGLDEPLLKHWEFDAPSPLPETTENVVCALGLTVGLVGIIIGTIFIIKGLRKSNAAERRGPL
T2 sequence (P01911 30-266): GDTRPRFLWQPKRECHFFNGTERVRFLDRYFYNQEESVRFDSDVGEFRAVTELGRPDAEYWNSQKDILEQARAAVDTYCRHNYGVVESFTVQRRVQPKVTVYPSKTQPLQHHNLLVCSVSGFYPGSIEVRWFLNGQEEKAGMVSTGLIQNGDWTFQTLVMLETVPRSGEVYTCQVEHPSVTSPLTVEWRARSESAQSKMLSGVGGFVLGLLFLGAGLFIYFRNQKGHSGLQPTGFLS
From the text: (§1) MBP peptides 30-44, 130-144 and 139-153 were synthesized using L-amino acids and standard F-moc chemistry on an Abimed AMS 422 multiple peptide synthesiser.
(§2) L-cells transfected with either HLA-DQ6, HLA-DR2a or HLA-DR2b, or Mgar cells (EACC, Porton Down, UK) which express HLA-DQ, DP and DR were used as APCs.
(§3) T-cell clones MS 49:D3 and MS17:A2 were generated from MS patients and clone N5:19 was generated from a normal individual. All three clones were DR2 positive.
(§4) Antigen presenting cells were incubated with the various concentrations of peptide and the appropriate T-cells. Proliferation, and therefore activation, of the T-cells was measured by [^3H]-Thymidine incorporation, and expressed as the stimulation index (SI=corrected counts per minute (ccpm) culture containing peptide/ccpm culture without peptide).

HLA-DR2a = biological target: T3, HLA-DR2a (Homo sapiens, UniProt P01903+Q30154); assay: Antigen presentation assay, HLA-DR2a transfected L-cells; type: cell-based
T3 construct: expressed in transfected cells; host or cells: L-cells
T3 sequence (P01903 26-254): as the sequence (P01903 26-254) above
T3 sequence (Q30154 30-266): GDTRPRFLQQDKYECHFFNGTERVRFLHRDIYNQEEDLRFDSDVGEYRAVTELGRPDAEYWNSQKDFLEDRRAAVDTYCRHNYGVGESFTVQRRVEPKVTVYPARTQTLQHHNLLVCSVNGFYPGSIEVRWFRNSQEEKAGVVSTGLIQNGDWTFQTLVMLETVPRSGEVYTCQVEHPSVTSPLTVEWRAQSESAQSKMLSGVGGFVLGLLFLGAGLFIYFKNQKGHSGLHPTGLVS
From the text: as §1, §2, §3, §4

Row | Substance | inducing tolerance when administered in solution ([1]; Anderton and Wraith (1998)) | prevention of / protection against EAE by peptide in soluble form ([1]; EAE induced with whole myelin or the 89-101 peptide) | immunogenicity: priming for T cell reactivity and induction of EAE ([1]; after immunisation) | response of the three epitope-specific T cell lines (TCL) to the peptide [2] | effect of peptide as tolerogen on recall responses after priming with 87-96 ([3]; 200 μg i.p. days -8, -6, -4, priming 87-96 in CFA day 0, lymph node cells day 10) | in vitro recall response after priming with 87-96 ([3]; PBS pre-treated mice, lymph node cells) | binding affinity for I-A^S (I-A^S) | proliferation of N5:19 T-cell clone, HLA-DR2b transfected L-cells (HLA-DR2b) | proliferation of N5:19 T-cell clone, HLA-DR2a transfected L-cells (HLA-DR2a)
1 | MBP 89-101: myelin basic protein (MBP) peptide 89-101, immunodominant antigen, not tolerogenic (PHLIRLFSRDAPG; UniProt P02686 89-101, looked up, fragment) | ineffective at inducing tolerance | does not prevent; also recorded: fails to protect against EAE | very effective immunogen | All three TCL respond | failed to inhibit recall responses to either 87-96 or 89-101 | weaker response | relatively high affinity |  | 
2 | MBP 139-153: MBP peptide 139-153 synthesized using L-amino acids (RPSQRHGSKYLATAS) |  |  |  |  |  |  |  | not | stimulated proliferation
